# Like-named read-outs stand apart in the source and are kept apart here.
# Columns and labels:
# [1] = tested on: spiderwort Commelina communis; experiment: Plant activating effect, foliar application, spiderwort; type: in vivo; settings: 21 days, 12 plants
# Description: A total of 12 pots, in which 600 g of volcanic ash soil was packed in a porcelain pot of 12 cm in inner diameter, and 1 plant of a spiderwort Commelina communis grown to a height of 15 cm was planted in 1 pot, were prepared and placed under a constant temperature environment of 20° C., and foliar application treatment was carried out once a day using the following application liquids. Conditions of the leaves 21 days thereafter were observed.
# apple variety “Fuji” = experiment: Coloring test of apple; type: in vivo
# Description: The 5-aminolevulinic acid phosphate obtained in Example 1 was dissolved in ion exchange water to the predetermined concentration shown in the following table. A spreader (“Approach BI” manufactured by Maruwa Biochemical) was added to the liquid to a concentration of 0.1% by weight. The pH was adjusted using phosphoric acid.
# An aqueous 5-aminolevulinic acid hydrochloride solution was prepared in the same manner, except that the above-described 5-aminolevulinic acid phosphate was changed to 5-aminolevulinic acid hydrochloride and the phosphoric acid for pH adjustment was changed to hydrochloric acid.
# The thus prepared liquid was sprayed at a ratio of 2 liters per branch on three main branches where young fruits of an apple variety “Fuji” bored but not yet colored into red (September 15). About 2 months thereafter (November 6), the apples were harvested and their coloring degree was examined. A color meter CR-200 manufactured by MINOLTA CAMERA was used for the measurement of color.
# The 5-aminolevulinic acid nitrate obtained in Example 16 was dissolved in ion exchange water to the predetermined concentration shown in Table 16. A spreader (“Approach BI” manufactured by Maruwa Biochemical) was added to the liquid to a concentration of 0.1% by weight. The pH was adjusted using nitric acid.
# A solution was prepared in the same manner, except that the above-described 5-aminolevulinic acid nitrate was changed to 5-aminolevulinic acid hydrochloride and the nitric acid was changed to hydrochloric acid.
# The 5-aminolevulinic acid p-toluenesulfonate obtained in Example 23 was dissolved in ion exchange water to the predetermined concentration shown in Table 24. A spreader (“Approach B1” manufactured by Maruwa Biochemical) was added to the liquid to a concentration of 0.1% by weight. The pH was adjusted using p-toluenesulfonic acid.
# A solution was prepared in the same manner, except that the above-described 5-aminolevulinic acid p-toluenesulfonate was changed to 5-aminolevulinic acid hydrochloride and the p-toluenesulfonic acid was changed to hydrochloric acid.
# [2] = pH of solution of 0.5 g in 0.5 ml of distilled water; type: physicochemical
# Description: Using three New Zealand white rabbits (males), a solution prepared by dissolving 0.5 g of 5-aminolevulinic acid phosphate in 0.5 ml of distilled water (pH 3.1) was applied for 4 hours to a 2.5 cm square area of the shaved uninjured skin of each animal which was then observed for 1, 24, 48 and 72 hours.
# [3] = Stimulation test (sense of taste, solid put on the tongue); type: in vivo; set-up: key to sense of taste stimulation: 0: No stimulation is felt.; 1: There is a stimulation but weak.; 2: There is a strong stimulation; settings: for sense of taste stimulation: 5 mg of solid on the tongue, one score per subject, five subjects
# Description: Each of five subjects has evaluated the sense of taste of the 5-aminolevulinic acid phosphate obtained in Example 1, in accordance with the following criteria by directly putting 5 mg of its solid on the tongue.
# • 0: No stimulation is felt. • 1: There is a stimulation but weak. • 2: There is a strong stimulation.
# The sense of taste was evaluated in the same manner as in Example 6, except that 5 mg of solid of 5-aminolevulinic acid hydrochloride was used.
# [4] = Chloride ion concentration of aqueous solutions by ion chromatography; type: physicochemical; settings: detection limit 0.1 ppm; each sample
# Description: When chloride ion concentration in the aqueous 5-aminolevulinic acid phosphate solutions used in the above-described examples was measured by ion chromatography under the following conditions, it was equal to or lower than the detection limit (0.1 ppm) in each sample.
# (§1) The measuring conditions are as follows; A: separation column (IonPac AS12A manufactured by Japan Dionex), B: guard column (IonPac AG12A manufactured by Japan Dionex), C: eluting solution (an aqueous solution containing Na2CO3: 3.0 mmol/l and NaHCO3: 0.5 mmol/l), D: flow rate (1.5 ml/min), E: suppressor (ASRS (recycle mode, current value 50 mA)), F: amount of introduced sample (25 μl), G: temperature of constant temperature oven (35° C.) and H: detector (electric conductivity detector).
# When chloride ion concentration in the aqueous 5-aminolevulinic acid nitrate solutions used in the above-described examples was measured by ion chromatography under the following conditions, it was equal to or lower than the detection limit (0.1 ppm) in each sample.
# as §1, with “follows:” for “follows;”, “consisting of” for “containing”
# When chloride ion concentration in the aqueous 5-aminolevulinic acid p-toluenesulfonate solutions used in the above-described examples was measured by ion chromatography under the following conditions, it was equal to or lower than the detection limit (0.1 ppm) in each sample.
# [5] = tested on: female rats (Sprague-Dawley CD species); settings: for Dead animals: 2000 mg/kg oral, per animal
# Description: This test was carried out in accordance with the OECD Guideline No. 423 “Acute Oral Toxicity-Acute Toxicity Grading Method” (adopted on Dec. 17, 2001). Fasted female rats (Sprague-Dawley CD species) of 3 animals per group were treated with 5-aminolevulinic acid phosphate at a dose of 300 mg per kg body weight. In addition, other fasted female rats of two or more groups were treated at a dose of 2000 mg per kg body weight. They were observed after the administration continuously for 2 weeks.
smiles,measurement,setting,value
"Cl.NCC(=O)CCC(=O)O [5-aminolevulinic acid hydrochloride, reference compound]",plants judged 0: Abnormality was not found on the leaf surface,[1]; 1 ppm in tap water,2 plants
same,plants judged 1: A region discolored to yellow was found on the leaf surface,[1]; 1 ppm in tap water,7 plants
same,plants judged 2: A necrotic region was found on the leaf surface,[1]; 1 ppm in tap water,3 plants
same,plants judged 0: Abnormality was not found on the leaf surface,[1]; 10 ppm in tap water,5 plants
same,plants judged 1: A region discolored to yellow was found on the leaf surface,[1]; 10 ppm in tap water,5 plants
same,plants judged 2: A necrotic region was found on the leaf surface,[1]; 10 ppm in tap water,2 plants
same,plants judged 0: Abnormality was not found on the leaf surface,[1]; 100 ppm in tap water,5 plants
same,plants judged 1: A region discolored to yellow was found on the leaf surface,[1]; 100 ppm in tap water,4 plants
same,plants judged 2: A necrotic region was found on the leaf surface,[1]; 100 ppm in tap water,3 plants
same,"Coloring, L",apple variety “Fuji”; 100 ppm (pH 5.0),42.28
same,"Coloring, a",apple variety “Fuji”; 100 ppm (pH 5.0),25.96
same,"Coloring, b",apple variety “Fuji”; 100 ppm (pH 5.0),14.72
same,"Coloring, L",apple variety “Fuji”; 200 ppm (pH 4.8),42.34
same,"Coloring, a",apple variety “Fuji”; 200 ppm (pH 4.8),30.92
same,"Coloring, b",apple variety “Fuji”; 200 ppm (pH 4.8),14.41
same,pH of solution,[2],≤ 2.0
same,sense of taste stimulation,[3],2
"NCC(=O)CCC(=O)O.O=P(O)(O)O [5-aminolevulinic acid phosphate, 5-aminolevulinic Acid Phosphate]",plants judged 0: Abnormality was not found on the leaf surface,[1]; 1 ppm in tap water,6 plants
same,plants judged 1: A region discolored to yellow was found on the leaf surface,[1]; 1 ppm in tap water,5 plants
same,plants judged 2: A necrotic region was found on the leaf surface,[1]; 1 ppm in tap water,1 plant^ plants
same,plants judged 0: Abnormality was not found on the leaf surface,[1]; 10 ppm in tap water,7 plants
same,plants judged 1: A region discolored to yellow was found on the leaf surface,[1]; 10 ppm in tap water,3 plants
same,plants judged 2: A necrotic region was found on the leaf surface,[1]; 10 ppm in tap water,2 plants
same,plants judged 0: Abnormality was not found on the leaf surface,[1]; 100 ppm in tap water,6 plants
same,plants judged 1: A region discolored to yellow was found on the leaf surface,[1]; 100 ppm in tap water,4 plants
same,plants judged 2: A necrotic region was found on the leaf surface,[1]; 100 ppm in tap water,2 plants
same,"Coloring, L",apple variety “Fuji”; 100 ppm (pH 5.0),42.37
same,"Coloring, a",apple variety “Fuji”; 100 ppm (pH 5.0),27.45
same,"Coloring, b",apple variety “Fuji”; 100 ppm (pH 5.0),14.54
same,"Coloring, L",apple variety “Fuji”; 200 ppm (pH 5.4),42.43
same,"Coloring, a",apple variety “Fuji”; 200 ppm (pH 5.4),31.06
same,"Coloring, b",apple variety “Fuji”; 200 ppm (pH 5.4),14.63
same,Coloring of red compared with 5-aminolevulinic acid hydrochloride,apple variety “Fuji”; in vivo,Coloring of red was denser
same,chloride ion concentration in the aqueous solutions used in the examples,[4],≤ 0.1 ppm
same,pH of solution,[2],3.1
same,stimulation on the tongue in comparison with hydrochloride,[3]; 5 mg of solid,strong stimulation was not found
same,sense of taste stimulation,[3],1
same,Dead animals,[5]; 0.5 hour after administration,0
same,Dead animals,[5]; 1 hour after administration,0
same,Dead animals,[5]; 2 hour after administration,0
same,Dead animals,[5]; 4 hour after administration,0
same,Dead animals,[5]; day 1 after administration,0
same,Dead animals,[5]; day 2 after administration,0
same,Dead animals,[5]; day 3 after administration,0
same,Dead animals,[5]; day 4 after administration,0
same,Dead animals,[5]; day 5 after administration,0
same,Dead animals,[5]; day 6 after administration,0
same,Dead animals,[5]; day 7 after administration,0
same,Dead animals,[5]; day 8 after administration,0
same,Dead animals,[5]; day 9 after administration,0
same,Dead animals,[5]; day 10 after administration,0
same,Dead animals,[5]; day 11 after administration,0
same,Dead animals,[5]; day 12 after administration,0
same,Dead animals,[5]; day 13 after administration,0
same,Dead animals,[5]; day 14 after administration,0
same,death,"[5]; 300 and 2000 mg per kg body weight, 2 weeks",death was not found in all of the rats
same,acute oral 50% lethal dose (LD50),"[5]; fasted female rats, observed 2 weeks","> 2,500 mg per kg body weight"

# Reference: patent publication US8471061B2 (priority 2004, dated 2013)
